# Target: T1, GST-RIPK1 (recombinant GST-RIPK1 kinase domain (residues 1-327)) (Homo sapiens, UniProt Q13546)
# T1 construct: recombinant GST-RIPK1 kinase domain (residues 1-327) enzyme produced from baculovirus-transfected Sf21 cells; host or cells: baculovirus-transfected Sf21 insect cells
# T1 sequence (Q13546 1-327): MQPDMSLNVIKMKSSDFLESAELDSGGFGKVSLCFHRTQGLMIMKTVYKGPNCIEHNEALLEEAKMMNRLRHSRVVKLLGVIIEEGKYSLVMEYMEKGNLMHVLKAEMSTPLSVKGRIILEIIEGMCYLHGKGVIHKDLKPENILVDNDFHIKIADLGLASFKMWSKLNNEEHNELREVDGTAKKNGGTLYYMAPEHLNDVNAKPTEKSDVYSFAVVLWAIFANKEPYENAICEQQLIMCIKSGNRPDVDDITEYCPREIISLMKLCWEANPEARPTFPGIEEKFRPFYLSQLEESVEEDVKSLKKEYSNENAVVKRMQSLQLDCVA
# Experiment: RIPK1-ADP-Glo Enzymatic Assay
# Type: biochemical
# Details: ten-point titration, top compound concentration of 100000 nM; 25 nM GST-RIPK1, 300 μM ATP, 3 μM dephosphorylated-MBP; 30 min pre-incubation, 150 min reaction
# Method in brief: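 GST-RIPK1 kinase domain (residues 1-327, Sf21-expressed), 25 nM, preincubated 30 min with compound, then reacted 150 min with 300 μM ATP and 3 μM dephosphorylated MBP in pH 7.3 Hepes buffer, 1% DMSO. ADP measured by ADP-Glo luminescence; EC50 from ten-point titration (top 100000 nM), four-parameter fit.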
row,Structure (SMILES),EC50 [nM]
1,"O=C1N2[C@@H](CC[C@H]2c2ccccc2)OC12CC(Oc1ccnc(Cl)c1)C2 (stereo partly drawn) [Example 8.11, (5′S,7a′R)-3-[(2-chloropyridin-4-yl)oxy]-5′-phenyltetrahydro-3′H-spiro[cyclobutane-1,2′-pyrrolo[2,1-b][1,3]oxazol]-3′-onee]",32
2,"O=C1N2[C@@H](CC[C@H]2c2ccccc2)OC12CC(Oc1cccc3sncc13)C2 (stereo partly drawn) [Example 8.12, (5′S,7a′R)-3-[(1,2-benzothiazol-4-yl)oxy]-5′-phenyltetrahydro-3′H-spiro[cyclobutane-1,2′-pyrrolo[2,1-b][1,3]oxazol]-3′-one]",20
3,"Cc1cc(OC2CC3(C2)O[C@@H]2CC[C@@H](c4ccccc4)N2C3=O)ccc1F (stereo partly drawn) [Example 8.13, (5′S,7a′R)-3-(4-fluoro-3-methylphenoxy)-5′-phenyltetrahydro-3′H-spiro[cyclobutane-1,2′-pyrrolo[2,1-b][1,3]oxazol]-3′-one]",62
4,"O=C1N2[C@@H](CC[C@H]2c2ccccc2)OC12CC(Oc1ccc3sncc3c1)C2 (stereo partly drawn) [Example 8.14, (5′S,7a′R)-3-[(1,2-benzothiazol-5-yl)oxy]-5′-phenyltetrahydro-3′H-spiro[cyclobutane-1,2′-pyrrolo[2,1-b][1,3]oxazol]-3′-one]",83
5,"O=C1N2[C@@H](CC[C@H]2c2ccccc2)OC12CC(Oc1cccc(C(F)(F)F)c1)C2 (stereo partly drawn) [Example 8.15, (5′S,7a′R)-5′-phenyl-3-[3-(trifluoromethyl)phenoxy]tetrahydro-3′H-spiro[cyclobutane-1,2′-pyrrolo[2,1-b][1,3]oxazol]-3′-one]",37
6,"O=C1N2[C@@H](CC[C@H]2c2ccccc2)OC12CC(Oc1cccc(-c3nnco3)c1)C2 (stereo partly drawn) [Example 8.16, (5′S,7a′R)-3-[3-(1,3,4-oxadiazol-2-yl)phenoxy]-5′-phenyltetrahydro-3′H-spiro[cyclobutane-1,2′-pyrrolo[2,1-b][1,3]oxazol]-3′-one]",58
7,O=C1N2[C@@H](CC[C@H]2c2ccccc2)OC12CC(Oc1cncc(Cl)c1)C2 (stereo partly drawn) [Example 8.17],35
8,"COc1cc(OC2CC3(C2)O[C@@H]2CC[C@@H](c4ccccc4)N2C3=O)ccc1F (stereo partly drawn) [Example 8.18, (5′S,7a′R)-3-(4-fluoro-3-methoxyphenoxy)-5′-phenyltetrahydro-3′H-spiro[cyclobutane-1,2′-pyrrolo[2,1-b][1,3]oxazol]-3′-one]",21
9,O=C1N2[C@@H](CC[C@H]2c2ccccc2)OC12CC(Oc1cccc3cnoc13)C2 (stereo partly drawn) [Example 8.19],254
10,"O=C1N2[C@@H](CC[C@H]2c2ccccc2)OC12CC(Oc1nccc3nccn13)C2 (stereo partly drawn) [Example 8.20, (5′S,7a′R)-3-[(imidazo[1,2-c]pyrimidin-5-yl)oxy]-5′-phenyltetrahydro-3′H-spiro[cyclobutane-1,2′-pyrrolo[2,1-b][1,3]oxazol]-3′-one]",20
11,"O=C1N2[C@@H](CC[C@H]2c2ccccc2)OC12CC(Oc1ccnn3cccc13)C2 (stereo partly drawn) [Example 8.21, (5′S,7a′R)-5′-phenyl-3-[(pyrrolo[1,2-b]pyridazin-4-yl)oxy]tetrahydro-3′H-spiro[cyclobutane-1,2′-pyrrolo[2,1-b][1,3]oxazol]-3′-one]",39
12,"O=C1N2[C@@H](CC[C@H]2c2ccc(F)cc2)O[C@]12C[C@H](Oc1ccnn3cccc13)C2 [Example 8.22, (1r,3R,5′S,7a′R)-5′-(4-fluorophenyl)-3-(pyrrolo[1,2-b]pyridazin-4-yloxy)tetrahydro-3′H-spiro[cyclobutane-1,2′-pyrrolo[2,1-b]oxazol]-3′-one]",29
13,"O=C1N2[C@@H](CC[C@H]2c2ccccc2)OC12CC(Oc1nncc3cccn13)C2 (stereo partly drawn) [Example 8.23, (5′S,7a′R)-5′-phenyl-3-[(pyrrolo[1,2-d][1,2,4]triazin-4-yl)oxy]tetrahydro-3′H-spiro[cyclobutane-1,2′-pyrrolo[2,1-b][1,3]oxazol]-3′-one]",29

# The remaining lines, values ahead:
row,EC50 [nM],Structure (SMILES)
1,14,"N#Cc1cc(O[C@H]2C[C@@]3(C2)O[C@@H]2CC[C@@H](c4ccc(F)cc4)N2C3=O)ncn1 [Example 9.1, 6-(((1r,3R,5′S,7a′R)-5′-(4-fluorophenyl)-3′-oxotetrahydro-3′H-spiro[cyclobutane-1,2′-pyrrolo[2,1-b]oxazol]-3-yl)oxy)pyrimidine-4-carbonitrile]"
2,16,"N#Cc1cc(O[C@H]2C[C@@]3(C2)O[C@@H]2CC[C@@H](c4cc(F)cc(F)c4)N2C3=O)ncn1 [Example 9.2, 6-(((5′S,7a′R)-5′-(3,5-difluorophenyl)-3′-oxotetrahydro-3′H-spiro[cyclobutane-1,2′-pyrrolo[2,1-b]oxazol]-3-yl)oxy)pyrimidine-4-carbonitrile]"
3,10,"O=C1N2[C@@H](CC[C@H]2c2cc(F)cc(F)c2)O[C@]12C[C@H](Oc1cc(Cl)ncn1)C2 [Example 9.3, (5′S,7a′R)-3-((6-chloropyrimidin-4-yl)oxy)-5′-(3,5-difluorophenyl)tetrahydro-3′H-spiro[cyclobutane-1,2′-pyrrolo[2,1-b]oxazol]-3′-one]"
4,12,"O=C1N2[C@@H](CC[C@H]2c2cc(F)cc(F)c2)O[C@]12C[C@H](Oc1cc(-n3cccn3)ncn1)C2 [Example 9.6, (5′S,7a′R)-5′-(3,5-difluorophenyl)-3-{[6-(1H-pyrazol-1-yl)pyrimidin-4-yl]oxy}tetrahydro-3′H-spiro[cyclobutane-1,2′-pyrrolo[2,1-b][1,3]oxazol]-3′-one]"
5,201,"Cc1nc2c(OC3CC4(C3)O[C@@H]3CC[C@@H](c5cc(F)cc(F)c5)N3C4=O)ncnc2s1 (stereo partly drawn) [Example 9.7, (5′S,7a′R)-5′-(3,5-difluorophenyl)-3-[(2-methyl[1,3]thiazolo[5,4-d]pyrimidin-7-yl)oxy]tetrahydro-3′H-spiro[cyclobutane-1,2′-pyrrolo[2,1-b][1,3]oxazol]-3′-one]"
6,24,"O=C1N2[C@@H](CC[C@H]2c2cc(F)cc(F)c2)OC12CC(Oc1cc(-n3cccn3)ncn1)C2 (stereo partly drawn) [Example 9.8, (5′S,7a′R)-5′-(3,5-difluorophenyl)-3-{[6-(1H-pyrazol-1-yl)pyrimidin-4-yl]oxy}tetrahydro-3′H-spiro[cyclobutane-1,2′-pyrrolo[2,1-b][1,3]oxazol]-3′-one]"
7,35,"O=C1N2[C@@H](CC[C@H]2c2cc(F)cc(F)c2)O[C@]12C[C@@H](Oc1cc(F)ncn1)C2 [Example 9.10, (1s,3S,5′S,7a′R)-5′-(3,5-difluorophenyl)-3-((6-fluoropyrimidin-4-yl)oxy)tetrahydro-3′H-spiro[cyclobutane-1,2′-pyrrolo[2,1-b]oxazol]-3′-one]"
8,21,"Cc1cn(-c2cc(OC3CC4(C3)O[C@@H]3CC[C@@H](c5cc(F)cc(F)c5)N3C4=O)ncn2)cn1 (stereo partly drawn) [Example 9.11, (5′S,7a′R)-5′-(3,5-difluorophenyl)-3-{[6-(4-methyl-1H-imidazol-1-yl)pyrimidin-4-yl]oxy}tetrahydro-3′H-spiro[cyclobutane-1,2′-pyrrolo[2,1-b][1,3]oxazol]-3′-one]"
9,446,"N#Cc1cc(O[C@H]2C[C@]3(C2)O[C@@H]2CC[C@@H](c4cc(F)cc(F)c4)N2C3=O)ncn1 [Example 9.12, 6-(((1s,3S,5′S,7a′R)-5′-(3,5-difluorophenyl)-3′-oxotetrahydro-3′H-spiro[cyclobutane-1,2′-pyrrolo[2,1-b]oxazol]-3-yl)oxy)pyrimidine-4-carbonitrile]"
10,108,"O=C1N2[C@@H](CC[C@H]2c2cc(F)cc(F)c2)O[C@]12C[C@@H](Oc1cc(Cl)ncn1)C2 [Example 9.13, (1s,3S,5′S,7a′R)-3-((6-chloropyrimidin-4-yl)oxy)-5′-(3,5-difluorophenyl)tetrahydro-3′H-spiro[cyclobutane-1,2′-pyrrolo[2,1-b]oxazol]-3′-one]"
11,139,"N#Cc1ncccc1O[C@H]1C[C@@]2(C1)O[C@@H]1CC[C@@H](c3ccccc3)N1C2=O [Example 9.14, 3-{[(1r,3R,5′S,7a′R)-3′-oxo-5′-phenyltetrahydro-3′H-spiro[cyclobutane-1,2′-pyrrolo[2,1-b][1,3]oxazol]-3-yl]oxy}pyridine-2-carbonitrile]"
12,78,"N#Cc1cncc(O[C@H]2C[C@@]3(C2)O[C@@H]2CC[C@@H](c4ccccc4)N2C3=O)n1 [Example 9.16, 6-{[(1r,3R,5′S,7a′R)-3′-oxo-5′-phenyltetrahydro-3′H-spiro[cyclobutane-1,2′-pyrrolo[2,1-b][1,3]oxazol]-3-yl]oxy}pyrazine-2-carbonitrile]"
13,18,"N#Cc1cc(O[C@H]2C[C@@]3(C2)O[C@@H]2CC[C@@H](c4ccccc4)N2C3=O)ncn1 [Example 9.17, 6-{[(1r,3R,5′S,7a′R)-3′-oxo-5′-phenyltetrahydro-3′H-spiro[cyclobutane-1,2′-pyrrolo[2,1-b][1,3]oxazol]-3-yl]oxy}pyrimidine-4-carbonitrile]"
14,64,"N#Cc1ccnc(O[C@H]2C[C@@]3(C2)O[C@@H]2CC[C@@H](c4ccccc4)N2C3=O)n1 [Example 9.19, 2-{[(1r,3R,5′S,7a′R)-3′-oxo-5′-phenyltetrahydro-3′H-spiro[cyclobutane-1,2′-pyrrolo[2,1-b][1,3]oxazol]-3-yl]oxy}pyrimidine-4-carbonitrile]"

# Source: patent US20250154173A1 (Merck Sharp & Dohme LLC, priority 2023, published 2025)
